# Measurements from patent publication US4542137A, “Alkylaminodesoxy-1.4;3.6-dianhydrohexitol nitrates substituted by purine bases and pharmaceutical compositions” (priority 1980, dated 1985).
# Read-outs that look alike come from different tables or passages of the source.
# Columns and labels:
# mongrel cats [1] = experiment: inotropic and frequency-lowering heart circulation effectiveness on mongrel cats, intravenous; format: in vivo; set-up: heart frequency previously / dp/dt previously / dp/dt afterwards: unit not given beside the values; settings: cat; for blood pressure afterwards / dp/dt afterwards / heart frequency afterwards: after; for blood pressure previously / dp/dt previously / heart frequency previously: before; for blood pressure Δ / dp/dt Δ / heart frequency Δ: change
# Method: (§1) The animals were narcotised with a mixture of chloralose-urethane (1.2 g./kg. urethane+40 mg./kg. chloralose administered i.p.). They breathed spontaneously through a tracheal canula. The A. carotis sinistra was used in order to place a catheter tip manometer into the left heart chamber. The V. jugularis served for injection purposes. Via the A. femoralis dextra, a catheter was pushed in up to the Aorta descendans and attached to a pressure recorder (Statham P 23 Db). The heart frequency was recorded with a pulse frequency measurer (Firm Hugo Sachs Elektronik) from the left ventricular pressure signal.
# mongrel cats [2] = experiment: inotropic and frequency-lowering heart circulation effectiveness on mongrel cats, intraduodenal; format: in vivo; settings: cat, 5 mg/kg intraduodenal
# Method: as §1, with “A. femoralis,” for “A. femoralis dextra,”, “pushed” for “pushed in”, “up into” for “up to”, “measurer (firm” for “measurer (Firm”, “signal. A duodenal loop was exposed by a laparotomy. The substances to be tested were injected directly into the lumen.” for “signal.”
# [3] = acute toxicity in mice according to the method of Lichtfield and Wilcoxon; settings: mouse, in vivo
# Method: As to example 1d, the following values for acute toxicity were determined with a greater number of mice, according to the method of Lichtfield and Wilcoxon: […]
# guinea pigs = experiment: blood pressure-lowering effectiveness on narcotised guinea pigs, i.v.; settings: for blood pressure afterwards: after; for blood pressure previously: before; for blood pressure Δ: change
smiles,measurement,setting,value
"Cn1c(=O)c2c(ncn2CCCN[C@H]2CO[C@H]3[C@@H]2OC[C@@H]3O[N+](=O)[O-])n(C)c1=O [Example 1d, 5-(3-Theophyllin-7-ylpropyl)-amino-5-desoxy-1.4;3.6-dianhydro-L-iditol 2-nitrate]",blood pressure WD,mongrel cats [1]; 0.25 mg/kg i.v.,27.71 min
same,dp/dt WD,mongrel cats [1]; 0.25 mg/kg i.v.,15.57 min
same,blood pressure afterwards,mongrel cats [1]; 0.25 mg/kg i.v.,64.86
same,dp/dt afterwards,mongrel cats [1]; 0.25 mg/kg i.v.,6086
same,heart frequency afterwards,mongrel cats [1]; 0.25 mg/kg i.v.,184.57
same,blood pressure previously,mongrel cats [1]; 0.25 mg/kg i.v.,103.00
same,dp/dt previously,mongrel cats [1]; 0.25 mg/kg i.v.,7371
same,heart frequency previously,mongrel cats [1]; 0.25 mg/kg i.v.,180.86
same,blood pressure Δ,mongrel cats [1]; 0.25 mg/kg i.v.,-38.14
same,dp/dt Δ,mongrel cats [1]; 0.25 mg/kg i.v.,-1285
same,heart frequency Δ,mongrel cats [1]; 0.25 mg/kg i.v.,+3.71
same,blood pressure WD,mongrel cats [1]; 0.50 mg/kg i.v.,20.21 min
same,dp/dt WD,mongrel cats [1]; 0.50 mg/kg i.v.,24.57 min
same,blood pressure afterwards,mongrel cats [1]; 0.50 mg/kg i.v.,61.57
same,dp/dt afterwards,mongrel cats [1]; 0.50 mg/kg i.v.,5300
same,heart frequency afterwards,mongrel cats [1]; 0.50 mg/kg i.v.,182.29
same,blood pressure previously,mongrel cats [1]; 0.50 mg/kg i.v.,101.86
same,dp/dt previously,mongrel cats [1]; 0.50 mg/kg i.v.,6614
same,heart frequency previously,mongrel cats [1]; 0.50 mg/kg i.v.,178.29
same,blood pressure Δ,mongrel cats [1]; 0.50 mg/kg i.v.,-40.29
same,dp/dt Δ,mongrel cats [1]; 0.50 mg/kg i.v.,-1314
same,heart frequency Δ,mongrel cats [1]; 0.50 mg/kg i.v.,+4.00
same,blood pressure WD,mongrel cats [1]; 1.00 mg/kg i.v.,24.29 min
same,dp/dt WD,mongrel cats [1]; 1.00 mg/kg i.v.,19.58 min
same,blood pressure afterwards,mongrel cats [1]; 1.00 mg/kg i.v.,59.86
same,dp/dt afterwards,mongrel cats [1]; 1.00 mg/kg i.v.,5186
same,heart frequency afterwards,mongrel cats [1]; 1.00 mg/kg i.v.,182.00
same,blood pressure previously,mongrel cats [1]; 1.00 mg/kg i.v.,103.43
same,dp/dt previously,mongrel cats [1]; 1.00 mg/kg i.v.,5957
same,heart frequency previously,mongrel cats [1]; 1.00 mg/kg i.v.,174.00
same,blood pressure Δ,mongrel cats [1]; 1.00 mg/kg i.v.,-43.57
same,dp/dt Δ,mongrel cats [1]; 1.00 mg/kg i.v.,-771
same,heart frequency Δ,mongrel cats [1]; 1.00 mg/kg i.v.,+8.00
same,blood pressure WD,mongrel cats [1]; 2.50 mg/kg i.v.,> 10 min
same,dp/dt WD,mongrel cats [1]; 2.50 mg/kg i.v.,6.42 min
same,blood pressure afterwards,mongrel cats [1]; 2.50 mg/kg i.v.,63.88
same,dp/dt afterwards,mongrel cats [1]; 2.50 mg/kg i.v.,6550
same,heart frequency afterwards,mongrel cats [1]; 2.50 mg/kg i.v.,180.33
same,blood pressure previously,mongrel cats [1]; 2.50 mg/kg i.v.,107.50
same,dp/dt previously,mongrel cats [1]; 2.50 mg/kg i.v.,6383
same,heart frequency previously,mongrel cats [1]; 2.50 mg/kg i.v.,169.67
same,blood pressure Δ,mongrel cats [1]; 2.50 mg/kg i.v.,-43.62
same,dp/dt Δ,mongrel cats [1]; 2.50 mg/kg i.v.,+167
same,heart frequency Δ,mongrel cats [1]; 2.50 mg/kg i.v.,+10.66
same,blood pressure,mongrel cats [2]; 0 min,115.4 ± 14.4 mm. Hg
same,dp/dt,mongrel cats [2]; 0 min,6000 ± 1367 mm sec.
same,frequency,mongrel cats [2]; 0 min,173.2 ± 14.5 min⁻¹
same,blood pressure,mongrel cats [2]; 10 min,86.0 ± 13.8 mm. Hg
same,dp/dt,mongrel cats [2]; 10 min,4880 ± 1371 mm sec.
same,frequency,mongrel cats [2]; 10 min,173.6 ± 14.8 min⁻¹
same,blood pressure Δ,mongrel cats [2]; 10 min vs 0,-29.4 mm. Hg
same,dp/dt Δ,mongrel cats [2]; 10 min vs 0,-1120 mm sec.
same,blood pressure,mongrel cats [2]; 30 min,88.6 ± 14.8 mm. Hg
same,dp/dt,mongrel cats [2]; 30 min,4500 ± 1312 mm sec.
same,frequency,mongrel cats [2]; 30 min,166.0 ± 15.6 min⁻¹
same,blood pressure Δ,mongrel cats [2]; 30 min vs 0,-26.8 mm. Hg
same,dp/dt Δ,mongrel cats [2]; 30 min vs 0,-1440 mm sec.
same,blood pressure,mongrel cats [2]; 60 min,95.0 ± 14.4 mm. Hg
same,dp/dt,mongrel cats [2]; 60 min,5020 ± 1330 mm sec.
same,frequency,mongrel cats [2]; 60 min,168.4 ± 14.0 min⁻¹
same,blood pressure Δ,mongrel cats [2]; 60 min vs 0,-20.4 mm. Hg
same,dp/dt Δ,mongrel cats [2]; 60 min vs 0,-980 mm sec.
same,blood pressure,mongrel cats [2]; 120 min,99.4 ± 13.2 mm. Hg
same,dp/dt,mongrel cats [2]; 120 min,5100 ± 1341 mm sec.
same,frequency,mongrel cats [2]; 120 min,164.8 ± 13.2 min⁻¹
same,blood pressure Δ,mongrel cats [2]; 120 min vs 0,-16.0 mm. Hg
same,dp/dt Δ,mongrel cats [2]; 120 min vs 0,-900 mm sec.
same,LD50,"[3]; ip, printed range (678.6-851.2), read-out: LD50 i.p.",760 mg/kg
same,LD50,"[3]; iv, printed range (190.4-251.9), read-out: LD50 i.v.",219 mg/kg
same,LD50,"[3]; po, read-out: LD50 p.o.",1600 mg/kg
same,blood pressure afterwards,guinea pigs; 0.25 mg/kg i.v.,49.75 ± 2.78 mm. Hg
same,blood pressure previously,guinea pigs; 0.25 mg/kg i.v.,67.75 ± 3.27 mm. Hg
same,blood pressure Δ,guinea pigs; 0.25 mg/kg i.v.,-18.00 mm. Hg
same,blood pressure afterwards,guinea pigs; 1.00 mg/kg i.v.,40.00 ± 2.12 mm. Hg
same,blood pressure previously,guinea pigs; 1.00 mg/kg i.v.,68.00 ± 3.85 mm. Hg
same,blood pressure Δ,guinea pigs; 1.00 mg/kg i.v.,-28.00 mm. Hg
same,blood pressure afterwards,guinea pigs; 2.50 mg/kg i.v.,37.50 ± 1.76 mm. Hg
same,blood pressure previously,guinea pigs; 2.50 mg/kg i.v.,66.25 ± 2.66 mm. Hg
same,blood pressure Δ,guinea pigs; 2.50 mg/kg i.v.,-28.75 mm. Hg
same,blood pressure-lowering effectiveness compared with ISMN or ISDN,"guinea pigs; i.v., narcotised guinea pigs",more effective than ISMN or ISDN
